Experimental data reported in patent US20110201659A1, “AGENT FOR PREVENTING OR TREATING ZOSTER-ASSOCIATED PAIN” (ASTELLAS PHARMA INC., priority 2008, published 2011).

Columns and labels:
[1] = test system: herpes simplex virus (HSV) and VZV; details: disclosed in Patent References 5 to 7; cited from earlier work
VZV = details: reported in Patent References 5 to 8; cited from earlier work
[2] = test system: patients who underwent herpes zoster; assay: clinical evaluation of zoster-associated pain / PHN incidence (Numeric pain scale); assay type: in vivo, human; details: for PHN incidence rate: pain scale of 3 or more on 91 days after first day of administration
From the text: The effect of compound A to prevent and treat zoster-associate pain in patients who underwent herpes zoster was clinically evaluated by monitoring the presence or absence of pain after administration of the compound A in the following manner. For the purpose, Numeric pain scale (11 points of from 0 (no pain) to 10 (a pain of more than this cannot be considered)) was used in the pain evaluation (Oxman M N, et al. N Engl J Med 2005; 352: 2271-2284).
Under informed consent with the persons themselves, 100 mg, 200 mg or 400 mg of the compound A was taken once a day for 7 days by each of the patients who underwent herpes zoster, and the pain was recorded by them day by day by the Numeric pain scale using a diary. From the diary record, the number of patients having pain scales of 3 or more on 91 days after the first day of drug administration were counted as the cases of PHN onset, and using the ratio based on the all persons to be rested as the PHN incidence rate, the effect of the compound A to prevent PHN was evaluated. As a result, the PHN incidence rate in the group which took 100 mg, 200 mg or 400 mg of the compound A was 2.0% (2 cases in 99 persons), 1.0% (1 case in 97 persons) or 3.2% (3 cases in 95 persons), respectively. Compound A inhibited the onset of PHN in 95% or more of the herpes zoster patients in the clinical evaluation.

HSV-1 [3] = assay: mouse HSV infection pain model (von Frey hair pain score, histopathology); assay type: in vivo
From the text: Examination was made on the effect of compound A upon the pain accompanied by viral infection. The mouse HSV infection pain model system on which onset of the pain similar to ZAP including acute phase and chronic phase pains has been reported was used in the evaluation of pain (Takasaki I, et al. Pain 2000; 86: 95-101, Takasaki I, et al. Jpn J. Pharmacol 2000; 83: 319-326, Takasaki I, et al. Anesthesiology 2002; 96: 1168-1174, Sasaki A, et al. Neuroscience 2007; 150: 459-466). Briefly, an area of 5×5 mm of epidermis of the lower part of the right hind leg knee joint of a hairless mouse (HOS: HR-1, female, 7 weeks of age at the time of infection) was scratched with a bundle of ten 27G intracutaneous injection needles, and 1.5×10^5 pfu/10 μL of an HSV-1 virus liquid was added dropwise thereto and spread thereon to be infected. Starting from one day after the infection, the compound A (50 mg/kg) or a solvent (25% Cremophor (registered trademark) EL/25% polyethylene glycol 400 aqueous solution) was orally administered twice a day for 5 days (5 animals each). The skin lesions were classified based on the skin lesion critical degrees and systemic symptoms and scored as from 0 to 7 (cf. the above-mentioned Example 1). […] The pain reaction of this case was evaluated as follows. […]
The pain score of each individual was calculated by averaging six scores. […]

HSV-1 [4] = assay: HSV-1 skin infection of hairless mice: skin lesion score and histopathology of skin, spinal cord and dorsal root ganglion; assay type: in vivo, mouse
Experimental: Using mice, examination was carried out on the tissue damage and nerve degeneration of the skin, spinal cord and spinal cord dorsal root ganglion by HSV-1 infection. Under ether anesthesia, right side of the dorsal part of a hairless mouse (HOS: HR-1, female, 7 weeks of age at the time of infection) was scratched with a needle, and 15 μl/mouse of an HSV-1 virus liquid was added dropwise to the scratched part to be infected. While, 15 μl/mouse of a solvent instead of the HSV-1 virus liquid was added dropwise in the pseudo-infection group. The compound to be tested (N-(2,6-dimethylphenyl)-N-(2-{[4-(1,2,4-oxadiazol-3-yl)phenyl]amino}-2-oxoethyl)tetrahydro-2H-thiopyran-4-carboxamide 1,1-dioxide: hereinafter, “compound A”) was used by dissolving in a 25% Cremophor (registered trademark) EL/25% polyethylene glycol 400 aqueous solution. By setting the administration liquid volume per one administration to 10 ml/kg, each initial administration was started one day after the HSV-1 infection. Thereafter, 50 mg/kg was repeatedly administered orally twice a day for 5 days.
The skin and spinal column (including spinal cord and dorsal root ganglion) were collected at 11 or 28 days after the infection and fixed with a 10% neutral buffer formalin liquid to prepare paraffin sections. Also, specimens of spinal cord and dorsal root ganglion were prepared on the transverse plane at the level of fourth thoracic vertebra (T4) and sixth thoracic vertebra (T6). Regarding the staining, immunohistological staining for PGP 9.5 as neurite-specific antigen was carried out on the skin sections, in addition to the hematoxylin-eosin staining (HE staining).
The skin lesions which bear resemblance to herpes zoster and are developed accompanied by HSV skin infection were classified based on the skin lesion critical degrees and systemic symptoms and scored as from 0 to 7, every day from 1 day to 28 days after the infection.
Score 1: erythema, blister or scab at local region
Score 2: erythema, blister or scab at small region
Score 3: erythema, blister or scab at middle region
Score 4: strap-like blister or scab
Score 5: erosion accompanied by ulcer at middle region
Score 6: strap-like ulcer
Score 7: death or paralysis

| Structure (SMILES) | in vivo activity [1] | anti-viral activity on VZV (VZV) | PHN incidence rate ([2]; 100 mg once a day for 7 days, 99 persons) | PHN incidence rate ([2]; 200 mg once a day for 7 days, 97 persons) | PHN incidence rate ([2]; 400 mg once a day for 7 days, 95 persons) | herpes zoster patients in whom onset of PHN was inhibited ([2]; 100, 200 or 400 mg once a day for 7 days, all dose groups) | nerve cell degeneration in right dorsal root ganglion, spinal cord right dorsal horn and right hind leg sciatic nerve bundle (HSV-1 [3]; 28 days after infection, HE staining, FIG. 5) | pain score (von Frey hair 0.4 g, infected hind leg) (HSV-1 [3]; hairless mouse, HSV-1 hind leg infection, 50 mg/kg orally twice a day for 5 days from 1 day after infection, early stage of onset and complete recovery stage of the lesion, FIG. 4B) | skin lesion score (onset of herpes zoster-like skin lesions) (HSV-1 [4]; hairless mouse, HSV-1 dorsal skin infection, 50 mg/kg orally twice a day for 5 days from 1 day after infection, scored day 1-28, FIG. 1) | right dorsal root ganglion histopathology (degeneration of nerve cell, infiltration of mononuclear cell) (HSV-1 [4]; right dorsal root ganglion at 11 days after infection, HE staining, FIG. 3d) | skin histopathology, HE staining (fall off of epidermis, infiltration of mononuclear cells, regeneration of epidermis) (HSV-1 [4]; skin at 11 days after infection, 50 mg/kg orally twice a day for 5 days, FIG. 2b) | PGP 9.5 immunostaining of the skin (nerve ending in epidermis) (HSV-1 [4]; skin at 28 days after infection, versus solvent control group, FIG. 2d) | spinal cord histopathology (nerve fiber vacuolization) (HSV-1 [4]; spinal cord at 11 days after infection, HE staining, FIG. 3b) |
| --- | --- | --- | --- | --- | --- | --- | --- | --- | --- | --- | --- | --- | --- |
| Cc1ccc(N(CC(=O)Nc2ccc(-c3cocn3)cc2)C(=O)C2CCS(=O)(=O)CC2)cc1 [N-(4-methylphenyl)-N-(2-{[4-(1,3-oxazol-4-yl)phenyl]amino}-2-oxoethyl)tetrahydro-2H-thiopyran-4-carboxamide 1,1-dioxide] | good in vivo activity |  |  |  |  |  |  |  |  |  |  |  |  |
| Cc1cccc(C)c1N(CC(=O)Nc1ccc(-c2ncon2)cc1)C(=O)C1CCS(=O)(=O)CC1 [compound A, N-(2,6-dimethylphenyl)-N-(2-{[4-(1,2,4-oxadiazol-3-yl)phenyl]amino}-2-oxoethyl)tetrahydro-2H-thiopyran-4-carboxamide 1,1-dioxide] | good in vivo activity | has the anti-viral activity on VZV | 2.0% | 1.0% | 3.2% | ≥ 95% | nerve cell degeneration was inhibited | increase of pain score was considerably inhibited | inhibited the onset of skin lesions | inhibited degeneration of nerve cell and infiltration of mononuclear cell | inhibited fall off of epidermis and infiltration of mononuclear cell and accelerated regeneration of epidermis | inhibition of the reduction of nerve ending | protected nerve fiber in the spinal cord |
